From ChEMBL document CHEMBL1201862, “PubChem BioAssay data set” (2004)
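Where inhibition never reached the appropriate level, the endpoint shown equals the highest concentration tested. Otherwise, values were interpolated linearly from a five-concentration, 48-hour dose response in 96-well plates. Here, GI50 denotes the concentration required for 50% inhibition of growth.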 Active and inactive are the calls of the source. Rule as the data show it: active = GI50 up to about 1.1 µM and inactive = higher.

Columns and labels:
Assay in all cases: growth of human tumour cells (NCI), 48 h
[1] = test system: NCI-H23
[2] = test system: NCI-H522
[3] = test system: ACHN
[4] = test system: 786-0
[5] = test system: SK-MEL-28
[6] = test system: HL-60
[7] = test system: MOLT-4
[8] = test system: IGROV-1
[9] = test system: NCI-H460
[10] = test system: SNB-19
[11] = test system: SF-295
[12] = test system: SR
[13] = test system: MDA-MB-231
[14] = test system: PC-3
[15] = test system: RXF 393
[16] = test system: K562
[17] = test system: MCF7
[18] = test system: SF-539
[19] = test system: HCT-15
[20] = test system: SW-620
[21] = test system: HOP-62
[22] = test system: UACC-257
[23] = test system: Hs-578T
[24] = test system: T47D
[25] = test system: COLO 205
[26] = test system: OVCAR-3
[27] = test system: MDA-N
[28] = test system: A549
[29] = test system: SK-MEL-2
[30] = test system: KM12
[31] = test system: MDA-MB-435
[32] = test system: SK-MEL-5
[33] = test system: SN12C
[34] = test system: HT-29
[35] = test system: TK-10
[36] = test system: HCT-116
[37] = test system: NCI/ADR-RES
[38] = test system: OVCAR-8
[39] = test system: EKVX
[40] = test system: UO-31
[41] = test system: A498
[42] = test system: HOP-92
[43] = test system: DU-145
[44] = test system: SF-268
[45] = test system: SK-OV-3
[46] = test system: CAKI-1
[47] = test system: HCC 2998
[48] = test system: BT-549
[49] = test system: M14
[50] = test system: LOX IMVI
[51] = test system: CCRF-CEM
[52] = test system: NCI-H226
[53] = test system: OVCAR-5
[54] = test system: UACC-62
[55] = test system: OVCAR-4
[56] = test system: U-251
[57] = test system: SNB-75

CC(C)OC(=O)c1ccc(NCC2=CC(=O)C=CC2=O)cc1Cl
GI50 [1]: 13.2 µM (inactive) | GI50 [2]: 1.02 µM (active) | GI50 [3]: 4.36 µM (inactive) | GI50 [4]: 14.1 µM (inactive) | GI50 [5]: 17.2 µM (inactive) | GI50 [6]: 0.904 µM (active) | GI50 [7]: 3.72 µM (inactive) | GI50 [8]: 11.5 µM (inactive) | GI50 [9]: 19.2 µM (inactive) | GI50 [10]: 6.11 µM (inactive) | GI50 [11]: 17.8 µM (inactive) | GI50 [12]: 1.58 µM (inactive) | GI50 [13]: 16.4 µM (inactive) | GI50 [14]: 8.3 µM (inactive) | GI50 [15]: 17.1 µM (inactive) | GI50 [16]: 2.73 µM (inactive) | GI50 [17]: 14.9 µM (inactive) | GI50 [18]: 12 µM (inactive) | GI50 [19]: 4.4 µM | GI50 [20]: 11.5 µM (inactive) | GI50 [21]: 32.5 µM (inactive) | GI50 [22]: 16.1 µM (inactive) | GI50 [23]: 23.3 µM (inactive) | GI50 [24]: 2.3 µM (inactive) | GI50 [25]: 4.07 µM (inactive) | GI50 [26]: 10.4 µM (inactive) | GI50 [27]: 8.39 µM (inactive) | GI50 [28]: 31.9 µM (inactive) | GI50 [29]: 31.7 µM (inactive) | GI50 [30]: 13.5 µM (inactive) | GI50 [31]: 9.44 µM (inactive) | GI50 [32]: 18.7 µM (inactive) | GI50 [33]: 16.1 µM (inactive) | GI50 [34]: 16.3 µM (inactive) | GI50 [35]: 15.7 µM (inactive) | GI50 [36]: 19.3 µM (inactive) | GI50 [37]: 7.93 µM (inactive) | GI50 [38]: 5.68 µM (inactive) | GI50 [39]: 15.4 µM (inactive) | GI50 [40]: 3.29 µM (inactive) | GI50 [41]: 16.3 µM (inactive) | GI50 [42]: 4.89 µM (inactive) | GI50 [43]: 18.3 µM (inactive) | GI50 [44]: 12.1 µM (inactive) | GI50 [45]: 31.4 µM (inactive) | GI50 [46]: 2.19 µM (inactive) | GI50 [47]: 15.2 µM (inactive) | GI50 [48]: 2.62 µM (inactive) | GI50 [49]: 27.8 µM (inactive) | GI50 [50]: 10.5 µM (inactive) | GI50 [51]: 0.448 µM (active) | GI50 [52]: 25.7 µM (inactive) | GI50 [53]: 22.2 µM (inactive) | GI50 [54]: 13.2 µM (inactive) | GI50 [55]: 12.7 µM (inactive) | GI50 [56]: 16.9 µM (inactive) | GI50 [57]: 15.8 µM (inactive)
